# Laboratory results taken from article PMC12686126, “LL‐37 Inhibits TMPRSS2‐Mediated S2' Site Cleavage and SARS‐CoV‐2 Infection but Not Omicron Variants” (Cell Proliferation, 2025).
# Tests used:
# [1] = test system: S2 subunit of BA.2, BA.2.75, BA.4, BA.5, BQ.1, XBB, XBB.1.5, XBB.1.16, CH.1.1, XBB.1.9, XBB.2.3 and EG.5.1; format: binding, SARS‐CoV‐2 Omicron variants
# [2] = test system: S2 subunit of Omicron variants; format: binding, SARS‐CoV‐2 Omicron variants
sequence,measurement,setting,value
LLGDFFRKSKEKIGKEFKRIVQRIKDFLRNLVPRTES [LL‐37],binding of S2 subunit to immobilised LL‐37,[1],much lower binding
same,S2 subunit bound to plasma membrane with facilitation by LL‐37,[2],S2 subunit of SARS‐CoV‐2 rather than Omicron variants obviously bound
